The text below walks through data of patent US20190160016A1, “Anti-Parasitic Compositions and Methods” (University of Canberra, priority 2016, published 2019).

Experiment [1] relates to Sarcoptes scabiei nits. The experiment can be described thus: ovicidal activity against scabies eggs (hatching rate). How it is done: To determine the ovicidal activity of Manuka oil and its fraction, dilutions to 2.5% and 5% were made in olive oil. […] Six independent experiments were conducted on separate days.
The subject of experiment [2] is P. humanus capitis adults and nymphs. The experiment can be described thus: filter paper diffusion bioassay, pediculicidal activity. Particulars: mean individual louse survival time, in vitro pediculicidal treatment. The text has this: Adults, nymphs, and nits of P. humanus capitis were collected from a population of children between the ages of 3 and 12, with the approval of their guardians, by raking a metal louse comb through sections of the scalp. Adult and nymph lice as well as nits (eggs) were obtained and pooled by carefully removing them from the metal teeth of the comb into clean plastic boxes. The children had not been treated with any pediculicide solution for at least the preceding month, using only the louse comb.
For testing the pediculicidal activity, a filter paper diffusion bioassay was made with adults and nymphs of the insect collected from heads no more than 4 hours before carrying out the assay. After careful selection under a dissecting microscope, 10 lice in a ratio of 8:2 adult:nymph III were placed on a filter paper disk (Whatman No 1; 9-cm diameter) on the lid of a Petri dish. Next, 0.5 ml of either (a) each test solution; (b) distilled water with Tween-20 (control); and (c) distilled water, Tween-20, and preserving agents (excipient control), were spread over the lice and filter paper for each group. The commercial lotions (containing tea tree oil and permethrin as chief active components) (0.5 ml) were simultaneously run as a positive controls. Three to nine replicates were conducted for each treatment. […] The number of dead lice were recorded for each dish.

In the case of `CC[C@H](C)[C@H]1O[C@]2(CC[C@@H]1C)C[C@@H]1C[C@@H](C/C=C(\C)[C@@H](O[C@H]3C[C@H](OC)[C@@H](O[C@H]4C[C@H](OC)[C@@H](O)[C@H](C)O4)[C@H](C)O3)[C@@H](C)/C=C/C=C3\CO[C@@H]4[C@H](O)C(C)=C[C@@H](C(=O)O1)[C@]34O)O2` [Ivermectin (100 μ/μL), ivermectin], the “Percentage inhibition, Day 4” value in experiment [1] (Day 4) came to 12.4 ± 5.0%. Also, the “Percentage inhibition, Day 8” value in experiment [1] (Day 8) is listed as 9.8 ± 4.8%. In experiment [1] (nymph emergence, Table 2), the “ovicidal activity (in words)” value is on record as “poor ovicidal activity”.
On to `CC1(C)C(C=C(Cl)Cl)C1C(=O)OCc1cccc(Oc2ccccc2)c1` (stereo not shown) [Permethrin, permethrin], for which the “Mean survival time” value in experiment [2] is 56.4 min.
